Laboratory results taken from patent publication US20240248074A1, “METHOD AND SYSTEM FOR SINGLE-CELL BIOPHYSICAL PROFILING USING A MICROFLUIDIC DEVICE” (NANYANG TECHNOLOGICAL UNIVERSITY, priority 2021, published 2024).
“Also recorded” adds a separate entry of the source. Like-named read-outs stand apart in the source and are kept apart here.

Key:
primary neutrophils [1] = test: Multi-parametric biophysical (impedance) profiling of primary neutrophils treated with stimuli; format: cell-based, human; settings: for cell size: 2 hr treatment vs control (FIG. 13B, E); for correlation between CD66b expression and cell size: Example 5 (FIG. 20); for electrical size (cell size): 2 hr treatment (FIG. 17D); for nucleus opacity (|Z|12 MHz/|Z|0.3 MHz): 2 hr treatment (FIG. 17G); for electrical deformability index: 2 hr treatment vs untreated neutrophils (FIG. 17F); for UMAP projection of biophysical features (shift vs control): Example 6, 10 biophysical features (FIG. 21)
primary neutrophils [2] = test: Flow cytometric analysis of neutrophil activation markers and F-actin; format: cell-based, human; settings: for CD11 b expression / CD66b expression: Example 4, 2 hr treatment (FIG. 14)
Description: The staining protocols for leukocyte identification are similar as previously described^50. The samples were stained for 30 min at 4° C. with FITC-labelled anti-human CD11 b and allophycocyanin (APC)-labelled anti-human CD66b antibodies. Non-specific antibody binding was examined using corresponding isotype negative control antibodies. The cells were washed once prior to flow cytometry analysis. All antibodies were purchased from eBioscience (1:20 dilution) and analyzed using a BD LSR Fortessa flow cytometer (BD Biosciences).

primary neutrophils [3] = test: Annexin V/Propidium iodide (PI) live-dead staining, flow cytometry; format: cell-based, human; settings: Example 5; STS 1 μM, 2 hr (FIG. 18)
[4] = tested on: HL-60 (leukemia cell lines); format: cell-based
HL-60 = test: Immunostaining and flow cytometric analysis of F-actin in HL-60; format: cell-based; settings: treated HL-60 vs control (FIG. 10 B, D, E)
Description: The effect of cytoskeleton disruptors, such as cytochalasin D (CytoD) and latrunculin B (LatB), on HL-60 deformability, was studied (FIG. 10 A-E).

[5] = HL-60 treated with cytoskeleton disruptor vs DMSO treated control (FIG. 10)

Compound: CCCCCCCCCCCCCC(=O)O[C@@H]1[C@@H](C)[C@@]2(O)[C@@H](C=C(CO)C[C@]3(O)C(=O)C(C)=C[C@@H]23)[C@@H]2C(C)(C)[C@]12OC(C)=O [PMA, Phorbol Myristate Acetate]
- cell size (primary neutrophils [1]; Example 4): larger than control
- impedance profile (cell size / opacity clusters) (primary neutrophils [1]; Example 4, PMA 200 nM, 2 hr): two distinct clusters
- correlation between CD66b expression and cell size (primary neutrophils [1]): increase in CD66b expression with cell size
- electrical size (cell size) (primary neutrophils [1]; Example 5): largest increase in cell size
- nucleus opacity (|Z|12 MHz/|Z|0.3 MHz) (primary neutrophils [1]; Example 5): significant decrease in nucleus opacities
- electrical deformability index (primary neutrophils [1]; Example 5): more deformable
- impedance profile (cell clusters / populations) (primary neutrophils [1]; Example 5, PMA 200 nM, 2 hr (FIG. 19)): two distinct cell clusters; also recorded: two distinct cell populations of different size and deformability
- UMAP projection of biophysical features (shift vs control) (primary neutrophils [1]): strong biophysical changes
- CD11 b expression (primary neutrophils [2]): elevated expressions
- CD66b expression (primary neutrophils [2]): elevated expressions

Compound: CN[C@@H]1C[C@H]2O[C@@](C)([C@@H]1OC)n1c3ccccc3c3c4c(c5c6ccccc6n2c5c31)C(=O)NC4 [STS, Staurosporine]
- nucleus opacity (|Z|12 MHz/|Z|0.3 MHz) (primary neutrophils [1]; Example 5): higher nucleus opacity
- membrane opacity (primary neutrophils [1]; Example 5, 2 hr treatment vs control (FIG. 17E)): significant increase in membrane opacity
- UMAP projection of biophysical features (shift vs control) (primary neutrophils [1]): strong biophysical changes
- Annexin V / PI expression (primary neutrophils [3]): increased Annexin V expression

Compound: C=C1[C@@H](C)[C@H]2[C@H](Cc3ccccc3)NC(=O)[C@]23[C@H](OC(C)=O)/C=C/[C@@](C)(O)C(=O)[C@@H](C)C/C=C/[C@H]3[C@@H]1O [cytochalasin D]
- electrical deformability index [4, 5]: higher electrical deformability index
- F-actin expression (HL-60): decreased F-actin expression

Compound: CSCC[C@H](NC=O)C(=O)N[C@@H](CC(C)C)C(=O)N[C@@H](Cc1ccccc1)C(=O)O [fMLP, N-Formylmethionyl-leucyl-phenylalanine]
- cell size (primary neutrophils [1]; Example 4): larger than control
- electrical deformability (deformability index) (primary neutrophils [1]; Example 4, 2 hr, fMLP 1 μM, glucose 30 mM, PMA 200 nM, vs untreated control (FIG. 13D)): stiffer cell properties
- correlation between CD66b expression and cell size (primary neutrophils [1]): increase in CD66b expression with cell size
- electrical size (cell size) (primary neutrophils [1]; Example 5): increased
- electrical deformability index (primary neutrophils [1]; Example 5): negligible changes
- UMAP projection of biophysical features (shift vs control) (primary neutrophils [1]): smaller shifts in different directions
- CD11 b expression (primary neutrophils [2]): elevated expressions
- CD66b expression (primary neutrophils [2]): elevated expressions
- F-actin expression (MFI) (primary neutrophils [2]; Example 5, 2 hr treatment (FIG. 17C)): highest F-actin expression; also recorded: increased F-actin expression

Compound: C/C1=C/C(=O)O[C@@H]2C[C@@H](CC[C@H](C)/C=C\CC1)O[C@@](O)([C@@H]1CSC(=O)N1)C2 [latrunculin B]
- electrical deformability index [4, 5]: higher electrical deformability index
- F-actin expression (HL-60): decreased F-actin expression

Compound: paraformaldehyde [PFA]
- cell size [4]: smaller cell size
- electrical deformability index [4]: lower than untreated control
